Laboratory results: US12594259B2, “Treatment regimen for the treatment of neurological diseases or conditions” (ACCURE THERAPEUTICS, S.L., priority 2019, dated 2026)
Entries after “also recorded” stand apart in the source; their conditions may differ. Read-outs that look alike come from different tables or passages of the source.

Assays:
[1] = system: Lysolecithin induced optic neuritis in SD Rats; assay: Overall efficacy in lysolecithin induced acute optic neuritis model; type: in vivo, Sprague Dawley Rat; conditions: daily IV 25 mg/Kg (2 h infusion) compared to 10, 25 and 70 mg/Kg IP
Method: The aim of Block1 was to determine the efficacy of BN201 administered intraperitoneally at various doses (10 mg/Kg, 25 mg/Kg, 70 mg/Kg) and intravenously at 25 mg/Kg in Lysolecithin induced optic neuritis in SD Rats (7 days study).
The aim of Block2 was to determine the efficacy of BN201 in long duration model of lysolecithin induced optic neuritis in SD rats (14 and 28 day study) […]
• Group 1 and 2 served as sham and pathological control respectively and only saline was administered • Test compound was delivered once at various doses (as mentioned above) through IP or IV infusion in the respective groups. […] Observation and Readouts 9.1 Body weight

[2] = system: Lysolecithin induced optic neuritis in SD Rats; assay: Inflammation (H&E stained optic nerve) in lysolecithin induced acute optic neuritis model; type: in vivo, Sprague Dawley Rat; conditions: BN201 treatment, conclusions over blocks 1 and 2
Method: (§1) • Receipt of animals (Male Sprague Dawley Rats, Age: 12-13 weeks, Body weight range at the time of study initiation: 306.8 — 385.2 g) and acclimatization of animals for a period of at least one week • Day 0: Administration of Lysolecithin in optic nerve • Administration of test compound (BN201) daily (Day 0 to day 6=7 doses in total) intra-peritoneally (IP) at various doses (10 mg/Kg, 25 mg/Kg, 70 mg/Kg) and Intravenously (infusion 25 mg/Kg) over 2 h for block1. • On day 6, Sampling of blood from block1 for plasma at predetermined time points (8-9 time points) for PK and tissue collection (Eye and optic nerve) for histopathological assessment. • Determination of plasma levels of BN201 by LC-MS/MS • Determination of Pharmacokinetic Parameters of BN201 by WinNonlin Analysis • Test compound administration (IP@10 & 25 mg/Kg) once daily (Day 0 to day 6=7 doses in total) for block2; Tissue collection (Eye and optic nerve collection during termination of the study) on day 14, and 28 for histopathological assessment. 3. Animal Conditioning
Animals were anesthetized; the shaved skin was disinfected with 75% ethanol. […]
• Group 1 and 2 served as sham and pathological control respectively and only saline was administered • Test compound was delivered once at various doses (as mentioned above) through IP or IV infusion in the respective groups. […] Observation and Readouts 9.1 Body weight […]

[3] = system: Lysolecithin induced optic neuritis in SD Rats; assay: Demyelination score (Luxol fast blue stained optic nerve) in lysolecithin induced acute optic neuritis model; type: in vivo, Sprague Dawley Rat
Method: as §1
(§2) Animals were anesthetized; the shaved skin was disinfected with 75% ethanol. A 1 cm incision was made in the skin above the orbit of an eye. The lacrimal glands and extraocular muscles were resected to expose 3 mm of the optic nerve under an operating microscope. The dura and arachnoid matter around the optic nerve were opened longitudinally. A small amount of dye was placed on the dura to show the microinjection site. This is done to identify the focal lesion for the histology. Microinjection was performed with a glass micropipette attached to a Hamilton syringe. The pipette was inserted into the optic nerve as superficially as possible at 2 mm posterior to the globe, and 0.8 μL of 1% lysolecithin (with 0.02% Evan's Blue) was slowly pressure-injected into the nerve over approximately 30 seconds. The sham control rats (animals without disease) were injected with 0.02% Evan's Blue in 0.8 μL saline without lysolecithin. After the injection, the skin incision was sutured, and antibiotic solution were administered to prevent infection.
(§3) • Group 1 and 2 served as sham and pathological control respectively and only saline was administered • Test compound was delivered once at various doses (as mentioned above) through IP or IV infusion in the respective groups. The first dosage was given 1 hour after Lysolecithin injection and repeated once/day until the end of the experiment • On day 6, blood was collected at various time points after administration of test item for drug concentration measurement: • Group 3-5 (IP groups): Pre-dose, 0.25, 0.5, 1, 4, 8 h, 12 h & 24 h (8 time points) • Group 6 (IV Infusion group): Pre-dose, then the following times post infusion: Oh (end of the infusion), 0.25 h, 0.5 h, 1 h, 4 h, 8 h, 12 h & 24 h (9 time points) • ˜200 μL of blood per time point was collected from Jugular vein for all the time points in K2EDTA blood collection tubes and stored at 4° C. until plasma separation within 30 minutes. After plasma separation, all the plasma samples were stored in two aliquots at −80° C. until the completion of all the time points. Further, one aliquot of plasma samples was submitted together to the DMG/KG for drug concentration analysis. 9. Observation and Readouts 9.1 Body weight
(§4) • Animals were euthanized on Day 7 with CO2 and were perfused transcardially with saline and 4% paraformaldehyde. Optic nerves (from globe to chiasm) and eye were removed and were fixed in 1% paraformaldehyde overnight. Eye from all the animals were collected in Davidson's fixative. • All tissues were processed in an automatic tissue processor and embedded in paraffin. Five-micro meter-thick (5 μm) transverse sections were made at the site of injections (at the place of the dye) using a rotary microtome. • Serial sections of each optic nerve were obtained (4-6 sections). […]

[4] = Body weight in lysolecithin induced acute optic neuritis study; type: in vivo, Sprague Dawley Rat; conditions: Blocks 1 & 2, compared to pathological control group
Method: Body weight measurement was performed every morning from day 0 to day 7. All animals were observed regularly for clinical signs.

[5] = system: Lysolecithin induced optic neuritis in SD Rats; assay: Axonal loss score (BSS stained optic nerve) in lysolecithin induced acute optic neuritis model; type: in vivo, Sprague Dawley Rat
Method: as §1, §2, §3, §4

[6] = system: Lysolecithin induced optic neuritis in SD Rats; assay: Retinal ganglion cell (RGC) count in lysolecithin induced acute optic neuritis model; type: in vivo, Sprague Dawley Rat
Method: as §1, §2, §3, §4

[7] = Phase 1 trial in healthy volunteers (pharmacokinetics); type: in vivo; conditions: humans
[8] = system: serum-glucocorticoid (SGK) pathway; conditions: cited from earlier work
[9] = Plasma pharmacokinetics of BN201 in rats (LC-MS/MS, WinNonlin); type: in vivo, Sprague Dawley Rat; conditions: 7 doses, Mean ± SEM; for Vd: iv, 25 mg/kg; for AUC(0-inf) / AUC(0-t) / Cmax / Tmax / half-life / AUC_%Extrap (obs): rat plasma
Method: as §1, §3
Study samples were processed by protein precipitation method using cold acetonitrile. In brief, 10 μL of plasma was mixed with 200 μL of acetonitrile containing 100 ng/mL-Verapamil as internal standard. The contents were vortexed to ensure mixing and the precipitated protein was removed by centrifugation at 4000 rpm for 15 minutes at 4° C. The supernatant was collected and submitted for Bioanalysis.

[10] = BN201 treatment, short term and long term, summary vs untreated groups
[11] = Block 2, day 28, 25 mg/Kg IP day 0 to day 6, vs placebo (p<0.05)
[12] = male, Sprague Dawley, IP 10 mg/Kg once daily
[13] = male, Sprague Dawley, IP 25 mg/Kg once daily
[14] = male, Sprague Dawley, IP 70 mg/Kg once daily
[15] = male, Sprague Dawley, IV infusion 25 mg/Kg over 2 h once daily

For `CC(C)CN(CC(=O)N(CCCN1CCCC1=O)CC(N)=O)C(=O)CNCCc1ccccc1F` [BN201, [N-(2-(2′-fluorophenyl)ethyl)-glycyl]-[N-(2-methylpropyl)-glycyl]-N-[3-(2′-oxopyrrolidinyl)-propyl]glycinamide], the “protection against optic neuritis” value [1] was “superior protection against optic neuritis”, the inflammation [2] was “reduced inflammation” and the demyelination [3, 10] was “reduced; also recorded: significant improvement”. For the same compound, the “protection against demyelination (demyelination score)” value (shortened to “protection … (demyelination score)”) ([3]; Block 1, day 7, 10 mg/Kg IP) was 13%, the “protection … (demyelination score)” value ([3]; Block 1, day 7, 25 mg/Kg IP) was 15% and the protection against demyelination ([3]; Block 1, day 7, 25 mg/Kg IV infusion) was 22%. For the same compound, the “protection … (demyelination score)” value ([3]; Block 1, day 7, 70 mg/Kg IP) was 44%, the Demyelination score ([3]; Block 2, day 28, 10 mpk IP day 0 to day 6, vs placebo (p<0.05)) was “significantly lower” and the Demyelination score ([3]; Block 2, day 28, 25 mpk IP day 0 to day 6, vs placebo (p<0.05)) was “significantly lower”. The Body weight [4] was “did not significantly change the body weight”, the axonal loss ([5]; BN201 treatment, conclusions over blocks 1 and 2) was “reduced” and the “protection against axonal loss (axonal loss score)” value ([5]; Block 1, day 7, 10, 25 and 70 mg/Kg IP) was 36-39%. The “protection against axonal loss” value ([5]; Block 1, day 7, IV infusion 25 mg/Kg) was 62%, the Axonal loss score ([5]; Block 2, day 28, 10 mg/Kg IP day 0 to day 6, vs placebo (p<0.05)) was “significant reduction in axonal loss; also recorded: significantly lower” and the Axonal loss score [5, 11] was “significant reduction in axonal loss; also recorded: significantly lower”. For the same compound, the “protection of axons against injury” value ([5]; IP or IV, 10 to 70 mg/Kg/day for 6 days, short term (7 days) and long term (up to day 28 post-injury)) was “able to protect axons against injury”, the retinal ganglion cells [6, 10] was “significant improvement in retinal ganglion cells” and the “protection against retinal ganglion cell loss” value ([6]; Block 1, day 7, 25 mg/Kg IP) was 48%. For the same compound, the “protection against retinal ganglion cell loss” value ([6]; Block 1, day 7, 70 mg/Kg IP) was 69%, the RGC count ([6]; Block 1, day 7, BN201 treated groups vs pathological control) was “trend of increased RGC count” and the RGC count ([6]; Block 1, day 7, IV infusion 25 mg/Kg vs pathological control) was “statistically significant improvement in RGC count”. The RGC count [6, 11] was “improvements; also recorded: significantly higher”, the half-life ([7]; human, in vivo) was no more than 480 min and the “clearance of the drug” value [7] was “quick clearance”. For the same compound, the drug accumulation [7] was “lack of drug accumulation”, the “activation of the SGK pathway, including phosphorylation of Foxo3 or NDRG1” value [8] was “activates the serum-glucocorticoid (SGK) pathway” and the MRT inf ([9]; male, Sprague Dawley, plasma, rat, IV infusion 25 mg/Kg over 2 h once daily) was 3 h. It also gave a clearance ([9]; male, Sprague Dawley, plasma, rat, IV infusion 25 mg/Kg over 2 h once daily, read-out: CLp (converted)) of 31.7 mL/min/kg, a Vd ([9]; male, Sprague Dawley, rat, plasma, rat, IV infusion 25 mg/Kg over 2 h once daily, read-out: Vd) of 15.8 ± 2.2 L/kg and a Vd ([9]; male, Sprague Dawley, rat, plasma, rat, IV infusion 25 mg/Kg over 2 h once daily, read-out: Vdss) of 5.7 ± 1.2 L/kg. For the same compound, the AUC(0-inf) [9, 12] was 6990 ng·h/mL, the AUC(0-t) [9, 12] was 6920 ± 385 ng·h/mL and the Cmax [9, 12] was 6680 ± 349 ng/mL. It also gave a Tmax [9, 12] of 18 min, a half-life [9, 12] of 330 ± 54 min and an AUC(0-inf) [9, 13] of 14700 ± 840 ng·h/mL. The AUC(0-t) [9, 13] was 14500 ± 859 ng·h/mL, the Cmax [9, 13] was 14400 ± 1540 ng/mL and the Tmax [9, 13] was 18 min. The half-life [9, 13] was 348 ± 12 min, the AUC(0-inf) [9, 14] was 62800 ± 2760 ng·h/mL and the AUC(0-t) [9, 14] was 62400 ± 2720 ng·h/mL. The Cmax [9, 14] was 34700 ± 2010 ng/mL, the Tmax [9, 14] was 18 min and the half-life [9, 14] was 282 ± 48 min. For the same compound, the AUC(0-inf) [9, 15] was 15400 ± 1810 ng·h/mL, the AUC(0-t) [9, 15] was 15100 ± 1780 ng·h/mL and the Cmax [9, 15] was 10400 ± 1320 ng/mL. The Tmax [9, 15] was 120 min, the half-life [9, 15] was 372 ± 54 min and the “AUC_%Extrap (obs)” value ([9]; IP 10 mg/Kg once daily) was 1 ± 0.2%. For the same compound, the “AUC_%Extrap (obs)” value ([9]; IP 25 mg/Kg once daily) was 1 ± 0.3%, the “AUC_%Extrap (obs)” value ([9]; IP 70 mg/Kg once daily) was 0.5 ± 0.1% and the “AUC_%Extrap (obs)” value ([9]; IV infusion 25 mg/Kg over 2 h once daily) was 1.6 ± 0.2%.
